Results as given in patent US20150125452A1, “COMBINATION TREATMENTS COMPRISING C-MET ANTAGONISTS AND B-RAF ANTAGONISTS” (GENENTECH, INC., priority 2011, published 2015).

Experiments:
Assay type in all cases: cell-based, Human
[1] = tested on: HER2-amplified breast cancer cell lines; experiment: Syto 60 cell viability, ligand rescue from lapatinib; details: 50 ng/mL ligand, 72 h
Protocol: Cell viability was assessed using the nucleic acid stain Syto 60 (Invitrogen). Cells (3000-5000 per well) were seeded into 96 well plates and allowed to adhere overnight. The next day, cells were treated with (or without) 50 ng/mL RTK ligand and concomitantly exposed to an increasing concentration range of the relevant kinase inhibitor. Following 72 hours drug exposure, cells were fixed in 4% formaldehyde, stained with Syto 60 and cell number was assessed using an Odyssey scanner (Li-Cor). Cell viability was calculated by dividing the fluorescence obtained from the drug-treated cells by the fluorescence obtained from the control (no drug) treated cells.
The ability of HGF to rescue 3 of 9 tested HER2-amplified breast cancer cell lines from growth inhibition by the HER2 kinase inhibitor lapatinib was also unexpected (FIG. 3A). These 3 cell lines all express MET, and expression was well correlated with the ability of HGF to attenuate lapatinib response (FIG. 3B).

[2] = tested on: AKT and ERK phosphorylation; experiment: Immunoblots of survival pathway re-activation
Protocol: FIGS. 2A-2C: pro-survival pathway re-activation correlated with RTK ligand rescue. FIG. 2A, Immunoblots showing the effect of acute RTK ligand treatment (50 ng/mL) on AKT and ERK phosphorylation following kinase inhibition (1 μM, 2 h). RTK ligand rescue is indicated, grey squares indicates complete rescue and black squares indicates partial rescue as determined by the initial screen (FIG. 1B). […] Cells were co-treated with 50 ng/mL RTK ligand in the presence of the appropriate secondary kinase inhibitor (0.5 μM) as indicated. […] Error bars represent mean+/−s.e.m. FIG. 2C, Immunoblots showing the effect of acute kinase inhibition (1 μM) in the presence and absence of RTK ligands (50 ng/mL, 2 h) on AKT and ERK phosphorylation. Cells were co-treated with secondary kinase inhibitor (0.5 μM) as appropriate.
Cell lysates were harvested using Nonidet-P40 lysis buffer, supplemented with Halt protease and phosphatase inhibitor cocktail (Thermo Scientific) and immunodetection of proteins was carried out using standard protocols. The phospho-HER2 (Y1248; #2247), HER2 (#2242), phospho-HER3 (Y1289; #4791), phospho-MET (Y1234/5; #3126), PDGFRα (#5241), phospho-FRS2α (Y196; #3864), IGF-1Rβ (#3027), phospho-ALK (Y1604; #3341), AKT (#9272), phospho-ERK (T202/Y204; #9101), ERK (#9102), GAPDH (#2118) and β-Tubulin (#2146) antibodies were purchased from Cell Signaling Technologies. Antibodies to HER3 (SC-285), MET (SC-10), phospho-PDGFRα (SC-12911), FRS2α (SC-8318), FGFR1 (SC-7945), FGFR2 (SC-122), FGFR3 (SC-13121) and ALK (SC-25447) were purchased from Santa Cruz Biotechnologies. Phospho-AKT (S473; #44-621G) antibody was purchased from Invitrogen. Phospho-EGFR (Y1068; ab5644) antibody was purchased from Abeam. EGFR (#610017) antibody was purchased from BD Biosciences. PARP (#14-6666-92) antibody was purchased from eBioscience. Densitometry was carried out using ImageJ software.

SK-MEL-28 cells = experiment: Secreted factor screen, Cell Titer Glo; details: 5 μM PLX[…], 50 ng/mL factor, 72 h, 446 factors
Protocol: […] […] […] Error bars represent mean+/−s.e.m.
Following 72 h incubation, cell viability was determined using Cell Titer Glo (Promega).

[3] = tested on: H358 EGF-like ligand-driven NSCLC cells; experiment: Syto 60 long-term staining with erlotinib and HGF; details: erlotinib 5 μM, HGF 50 ng/mL, every 3 days for 9 days
Protocol: Cells were co-treated with 50 ng/mL HGF. Error bars represent mean+/−s.e.m. […] FIG. 8C, Syto 60 staining of H2228 EML4-ALK translocated NSCLC cells treated with TAE684 (2 μM) in the presence and absence of HGF (50 ng/mL) as indicated. Cells were treated every 3 days for 9 days. FIG. 8D, Syto 60 staining of H358 EGF-like ligand-driven NSCLC cells treated with Erlotinib (5 μM) in the presence and absence of HGF (50 ng/mL) as indicated. Cells were treated every 3 days for 9 days.

HGF: recombinant human RTK ligand (MET ligand) purchased from Peprotech
number of HER2-amplified breast cancer cell lines rescued from lapatinib [1]: 3 of 9
PI3K/MAPK pathway re-activation by RTK ligand in presence of kinase inhibitor ([2]; 50 ng/mL ligand, kinase inhibitor 1 μM, 2 h): re-activated both PI3K and MAPK pathways
re-activation of PI3K and MAPK signalling in HER2 amplified cell lines ([2]; AU565, HCC1954 (MET positive), BT474 (MET negative), lapatinib 1 μM, HGF 50 ng/mL, 2 h): re-activated PI3K and MAPK signalling pathways specifically in MET-positive, but not in MET-negative cells
persistence of redundant RTK activation and downstream survival signalling ([2]; AU565 cells, lapatinib 1 μM and HGF 50 ng/mL): at least 48 hours
re-activation of AKT and ERK activity in presence of TAE684 ([2]; H2228 cells): able to re-activate AKT and ERK activity
ERK and AKT activation in presence of TAE684 ([2]; H3122 cells, TAE684 1 μM, HGF 50 ng/mL, 2 h): promotes ERK and AKT activation
re-activation of MAPK signalling (pERK) in BRAF mutant cell lines ([2]; PLX[…] 1 μM, HGF 50 ng/mL, 2 h, MET positive versus MET negative lines): could re-activate MAPK signalling in cell lines that were rescued by HGF
effect of secreted factor on PLX[…] sensitivity (SK-MEL-28 cells): could attenuate PLX4032 sensitivity
effect of HGF on longer-term erlotinib treatment [3]: rescued
